Assay results from patent publication US20230097253A1, “NOVEL QUINAZOLINE COMPOUND AS THERAPEUTIC AGENT FOR METABOLIC DISORDERS” (BIOWAY., INC, priority 2020, published 2023).

Assays:
[1] = tested on: steatosis-induced Huh-7 cells; test: Expression of lipogenesis-related proteins (western blot); format: cell-based; details: Huh7 cells, 250 μM PA; 0.5, 2.5, 10 μM, 24 hours; FIG. 9-A
Method: (§1) To induce steatosis in Huh-7 cells in each well except for control cells, the Huh-7 cells were treated with PA bound to 2% BSA at a concentration of 250 μM except for the control, and the control cells were pretreated with 2% BSA without FA.
The cells in each well were treated with the compound of Chemical Formula 2 0.5 μM, 2.5 μM, and 10 μM and then cultured for 24 hours. The control cells and PA treated cells were treated with DMSO. All media were aspirated and the cells were gently washed 3 times with cold PBS.
(§2) A cold lysis buffer containing 150 mM sodium chloride (NaCl), 5 mM ethylenediaminetetraacetic acid (EDTA), pH 8.0, […] 4-(2-hydroxyethyl)-1-piperazineethanesulfonic acid (HEPES), 1% nonylphenoxypolyethoxylethanol (NP-40), 2 μg/mL aprotinin, 1 μM pepstatin A, 10 μM leupeptin, 1 mM sodium fluoride (NaF), 0.2 mM sodium orthovanadate ([…]), and 1 μM phenylmethylsulfonyl fluoride (PMSF) was added thereto.
(§3) A whole cell lysate was collected and gently pipetted at least 10 times to ensure complete lysis. The sample was incubated on ice for 20 minutes and centrifuged 4° C. at 13,000 rpm, for 20 minutes. […]
(§4) Images were acquired using an ImageQuant LAS 3000 (Fujifilm, Tokyo, Japan). Data were analyzed.

[2] = tested on: steatosis-induced Huh7 cells; test: Protein expression for verification of multiple mode regulator, with and without AMPK inhibitor (western blot); format: cell-based
Method: as §1
[…] The control cells and PA treated cells were treated with DMSO. All media were aspirated and the cells were gently washed 3 times with cold PBS.
as §2
A whole cell lysate was collected and gently pipetted at least 10 times to ensure complete lysis. The sample was incubated on ice for 20 minutes and centrifuged 4° C. at 13,000 rpm, for 20 minutes. The supernatant was collected, 5× sodium dodecyl sulfate (SDS) sample buffer containing 50 mM Tris-CI (pH 6.8), 2% SDS, 0.1% bromopheol blue, and 10% glycerol was added to the sample, and boiled at 95° C. for 5 minutes.
The wells of 10% SDS-polyacrylamide gel electrophoresis (SDS-PAGE) were loaded with the same amount of a protein along with the molecular weight marker. The gel was electrophoresed at 100 V for 30 minutes in an electrophoresis chamber (Bio-Rad Laboratories, Hercules, Calif., USA).
A polyvinylidene fluoride (PVDF) membrane (MilliporeSigma, Burlington, Mass., USA) was activated with methanol (MeOH) for 1 minute and washed with a transfer buffer containing 25 mM Tris, 190 mM glycine, and 20% MeOH. The gel was placed in the transfer buffer for 10 minutes.
The transfer sandwich (in the order of paper, gel, membrane, and paper) was assembled and it was checked whether no air bubbles were trapped in the transfer sandwich. […]
as §4

[3] = tested on: steatosis-induced Huh-7 cells; test: Expression of fat-oxidation promoting proteins (western blot) compared to existing developed materials; format: cell-based; details: 250 μM PA, BW-3290 0.5, 2.5, 10 μM vs comparators 1 and 10 μM, 24 hours, FIG. 4
Method: as §1
The cells in each well were treated with the compounds of the present invention, BW-3290, 0.5 μM, 2.5 μM, and 10 μM, PF-06409577 1 μM and 10 μM, and elafibranor 1 μM and 10 μM, respectively and then cultured for 24 hours. The control cells and PA treated cells were treated with DMSO. All media were aspirated and the cells were gently washed 3 times with cold PBS.
A cold lysis buffer containing 150 mM sodium chloride (NaCl), 5 mM ethylenediaminetetraacetic acid (EDTA), pH 8.0, […] 4-(2-hydroxyethyl)-1-piperazineethanesulfonic acid (HEPES), 1% nonylphenoxypolyethoxylethanol (NP-40), aprotinin (2 μg/mL), 1 μM pepstatin A, 10 μM leupeptin, 1 mM sodium fluoride (NaF), 0.2 mM sodium orthovanadate ([…]), and 1 μM phenylmethylsulfonyl fluoride (PMSF) was added thereto.
as §3, §4

[4] = tested on: DIAMOND™ mouse model; test: In-vivo activity in DIAMOND mouse model: body weight, liver weight, liver function enzymes; details: DIAMOND mice, 16 mg/kg oral once daily for 8 weeks
Method: The DIAMOND™ mouse model, an animal model prepared using a Western diet and sugar water, was used. The DIAMOND™ mice were induced with WDSW for 14 weeks, and 12 mice were used for the control group and 12 mice for the BW-3290 treatment group, and BW-3290 was orally administered at 16 mg/kg once daily for 8 weeks. An autopsy was performed at week 22, and blood collection and tissue storage were performed for the individuals in each group.

[5] = week 22, compared to control group (VC), FIG. 17
[6] = vs control group (VC), statistical significance

What does the source list for `CC(C)C(Nc1ncnc2nc[nH]c12)c1nc2cccc(Cl)c2c(=O)n1-c1ccccc1` (stereo not shown) [BW-3290, 2-(1-((7H-purin-6-yl)amino)-2-methylpropyl)-5-chloro-3-phenylquinazolin-4(3H)-one]?
level of FAS protein [1]: decreased in a concentration-dependent manner; level of SREBP1 protein [1]: decreased in a concentration-dependent manner; activity of SIRT1 and AMPK (p-AMPK, p-ACC) when AMPK activity is inhibited ([2]; 250 μM PA, 10 μM compound C (AMPK inhibitor), 10 and 20 μM BW-3290, 24 hours, FIG. 15): increases the activity of SIRT1 and AMPK; AMPK protein expression level ([2]; 0.5, 2.5, 10 μM, FIG. 13): increase in a concentration-dependent manner; SIRT1 protein expression level ([2]; 0.5, 2.5, 10 μM, FIG. 13): increase in a concentration-dependent manner; expression of LCAD (fatty acid oxidation-related protein) compared to PF-064099577 and elafibranor [3]: same or higher effect of fatty acid degradation; p-ACC expression (inhibition of fat accumulation) compared to PF-064099577 and elafibranor [3]: same or higher effect of inhibiting fat accumulation; liver/body weight ratio ([4]; week 22): improve; body weight [4, 5]: decreased; liver weight [4, 5]: decreased; alkaline phosphatase (ALP) level ([4]; vs control group (VC)): decreased; alanine aminotransferase (ALT) level [4, 6]: decreased; aspartate aminotransferase (AST) level [4, 6]: decreased
